In US5707821A, “Identification of phospholipase A2 inhibitors in Aβ peptide-mediated neurodegenerative disease” (priority 1995, dated 1998):
Read-outs that look alike come from different tables or passages of the source.

Key:
[1] = test system: IL-1β release by cultured human cortical microglia; experiment: IL-1 release from LPS-stimulated human cortical microglia; assay type: cell-based
Description: (§1) Cultures of human cortical or hippocampal astrocytes and microglia were prepared using a modification of the procedure described for cortical neurons. Cortical tissue from fetuses of 16 to 20 weeks of gestation was washed 3 times in Ca^2+ /Mg^2+ free Hanks balanced salt solution (CMF HBSS) and then dissociated by repeated pipetting. The solution was brought to a final volume of 80 ml CMF HBSS for approximately 10 ml of tissue. DNase (Sigma) was added to a final concentration of 0.05 mg/ml. 20 ml of the solution was passed through one 100 μm nylon cell strained (Falcon). The cells were then centrifuged for 5 minutes at 200×G in an IEC Clinical Centrifuge and resuspended in a trypsin/EDTA solution (0.05% trypsin+0.53 mM EDTA in HBSS; Gibco) and incubated for 20 minutes at 37°C. (10 ml of trypsin was added per 2-3 ml of tissue). The trypsin was then inactivated by adding (MEM/FBS): Modified Eagle's Medium (MEM) containing 1% glucose, 1 mM sodium pyruvate, 1 mM glutamine, and supplemented with 10% fetal bovine serum (JRH). After adding a final concentration of 0.05 mg/ml DNase the cells were resuspended and then pelleted by centrifugation and resuspended in MEM/FBS. 1.6×10^8 cells were seeded in a T-150 tissue culture flask coated with polyethyleneimine (PEI). (10% PEI (Sigma) was diluted 1:10 in H2 O, filtered through a […] unit and then diluted into 150 mM sodium borate pH 8.5 at 1:100. The flasks were coated overnight at room temperature, washed two times in PBS and coated with 20 ml/flask of MEM/FBS at 37° C. for at least one hour prior to plating cells.) Cultures were maintained in a H2 O-saturated incubator with an atmosphere of 95% air/5% CO2 at 37° C. The culture medium was changed one and four days after plating and the cultures were then left undisturbed for at least one week. After approximately two weeks in vitro, the flasks were gently shaken and floating microglia were collected and centrifuged for 5 minutes at 200×G in an IEC Clinical Centrifuge. The microglia were reseeded in 96 well tissue culture plates at a density of 5,000-40,000 cells/well in 125 μl in MEM/FBS. Astrocyte cultures were prepared by multiple passaging of the established mixed brain cell cultures. Each T-150 was incubated for 3-4 minutes at 37°C. with a trypsin/EDTA solution (see above). The trypsin was then inactivated by adding MEM/FBS. The cells were triturated and then pelleted by centrifugation and resuspended in MEM/FBS. The cells from one T-150 were seeded at a 1:30 to 1:5 dilution in T-150's not coated. Just prior to confluency the cells were repassaged by trypsinization as described above. This process was repeated until the cultures were >98% pure astrocytes.
(§2) The effects of the benzenesulfonamide PLA2 inhibitor AN20606 and the selective cytosolic PLA2 inhibitor arachidonyl trifluoromethyl ketone (AN20579) were examined in cultured human cortical microglia for their selectivity for inhibiting microglia activation mediated by amyloid-βpeptide and lipopolysaccharides (LPS). LPS are a major constituent of the cell wall of gama-negative bacteria and are extensively used for generating inflammatory responses in cultured cells and in vivo.

[2] = test system: human cortical neurons; experiment: Aβ neurotoxicity in human cortical neurons (alamarBlue), 2 h pretreatment with inhibitor; assay type: cell-based; details: for Emax / IC50: Homo sapiens, Cortical neurone; for Emax: 72 h, read-out: Max Inh; for IC50: ND = not detected at the concentration range used, read-out: IC50 (dose that inhibited Aβ-mediated neurotoxicity by 50%)
Description: (§3) Cultures of human cortical or hippocampal neurons were prepared using a modification of the procedure described in P. Seubert et al. (1992), Nature 359:325-327. Cortical or hippocampal tissue was dissociated by incubation in a trypsin/EDTA solution (0.05% trypsin +0.53 mM EDTA in HBSS; Gibco) for 20 minutes at 37° C. The trypsin was then inactivated by resuspending the cells in serum-containing medium (MEM/FBS): Modified Eagle's Medium (MEM) containing 1% glucose, 1 mM sodium pyruvate, 1 mM glutamine, and supplemented with 10% fetal bovine serum (Gibco). Cells were then pelleted by centrifugation and resuspended in a chemically-defined medium (MEM/B27): MEM containing B27 supplement (Gibco) in place of FBS. Polyethyleneimine (PEI)-coated 6.4-mm (96-well) dishes were rinsed once with MEM/FBS, and then seeded at 0.75-1.25×10^5 cells per well in 0.1 ml MEM/B27. Cultures were maintained in a H2 O-saturated incubator with an atmosphere of 95% air/5% CO2 at 37° C. The culture medium was exchanged twice weekly.
(§4) Amyloid-β (Aβ) stock solutions were prepared as 1 mM stocks in sterile ddH2 O immediately prior to addition to cultures. Rat cortical neurons were exposed to Aβ by removing the culture medium and replacing it with DMEM/N2 or DMEM/B27 containing Aβ1-40. Human cortical neurons were exposed to Aβ by removing the culture medium and replacing it with MEM, MEM/N2, or MEM/B27 containing Aβ1-40. Cultures were maintained for 2-4 days before neuronal survival was quantified using alamarBlue™.
(§5) The alamarBlue™ assay incorporated a proprietary fluorometric/colorimetric metabolic indicator (Alamar Biosciences, Inc.). Viable cells convert alamarBlue™ from an oxidized (non-fluorescent, blue) form to a reduced (fluorescent, red) form. Assays were performed by replacing the culture media with a 10% alamarBlue™ solution in DMEM (rat cortical cultures) or MEM (human cortical cultures). Reduction of alamarBlue™ was determined spectrofluorometrically using a Millipore Cytofluor 2350 Scanner (excitation, […]; emission, 590 nm) and CytoCalc™ software (Millipore Corporation).
The effect of pretreating human cortical neuron cultures with the benzenesulfonamide PLA2 inhibitors and arachidonyl trifluoromethyl ketone prior to exposure to a neurotoxic concentration of Aβ1-40 was determined.
(§6) Human cortical neurons were treated with 50 μM Aβ1-40 and various inhibitors of PLA2. Compounds were added 2 hours prior to Aβ1-40 treatment at concentrations of 390 nM to 100 μM, and were then re-added at the time of Aβ1-40 treatment. Compounds were also added in an identical manner to neuronal cultures in the absence of Aβ1-40. Neuronal survival was determined after 3 days of treatment by alamarBlue®. IC50 is the dose of compound that inhibited Aβ-mediated neurotoxicity by 50%. […] Data represents the mean ± SD (n=3). ND, not detected at the concentration range used.

[3] = test system: TNF-α release by cultured human cortical microglia; experiment: TNF-α release (ELISA) from Aβ1-40-stimulated human microglia; assay type: cell-based
Description: as §1
(§7) Cultured microglial cells were treated with 50 μM of Aβ1-40 or vehicle only (Control). The levels of IL-1β, IL-6, and TNF-α released into the culture medium were determined by ELISA assay (R&D Systems) according to manufacturer's instructions.
(§8) The effect of two benzenesulfonamide inhibitors of PLA2 (European Patent Application 468 054) were examined on the activation of microglial cells by Aβ1-40 as in Example 1.
as §2

[4] = test system: Ca^+2 -independent PLA2; details: Ackermann et al. (1995); cited from earlier work
[5] = test system: cPLA2; details: Street et al. (1993); cited from earlier work
[6] = test system: IL-1β release by cultured human cortical microglia; experiment: IL-1β release (ELISA) from Aβ1-40-stimulated human microglia; assay type: cell-based
Description: as §1, §7, §8, §2

[7] = test system: TNFα release by cultured human cortical microglia; experiment: TNF release from LPS-stimulated human cortical microglia; assay type: cell-based
Description: as §1, §2

[8] = test system: human cortical neurons; experiment: Aβ neurotoxicity / survival of human cortical neurons (alamarBlue), compound added at time of Aβ1-40; assay type: cell-based
Description: as §3, §4, §5
The effect of the two benzenesulfonamide inhibitors of PLA2 in Example 2 were examined to determine the dose-dependence of their effect on neuronal survival in human cortical neuron cultures exposed to 0 μM, 25μM, or 50 μM of Aβ1-40 and varying doses of the benzenesulfonamide.
as §6, with “PLA2 or PLC.” for “PLA2.”, “added” for “added 2 hours prior to Aβ1-40 treatment at concentrations of 390 nM to 100 μM, and were then re-added”, “treatment at concentrations 390 nM to 100 μM.” for “treatment.”, “added” for “added in an identical manner”

[9] = test system: human cortical neurons; experiment: Compound toxicity to human cortical neurons in absence of Aβ1-40 (alamarBlue, 3 days); assay type: cell-based
Description: as §3, §5
as §6, with “PLA2 or PLC.” for “PLA2.”, “added” for “added 2 hours prior to Aβ1-40 treatment at concentrations of 390 nM to 100 μM, and were then re-added”, “treatment at concentrations 390 nM to 100 μM.” for “treatment.”, “added” for “added in an identical manner”

[10] = test system: human cortical neurons; experiment: Compound toxicity to human cortical neurons in absence of Aβ1-40, added as in pretreatment protocol; assay type: cell-based; details: no Aβ1-40, 3 days; for TD10 (concentration giving 10% loss of neuronal survival): n=3
Description: as §3, §5, §6

[11] = Compound toxicity to human cortical neurons in absence of Aβ1-40 (alamarBlue, 3 days); assay type: cell-based; details: human, cortical neurons
Description: as §3, §5
as §6, with “PLA2 or PLC.” for “PLA2.”, “added” for “added 2 hours prior to Aβ1-40 treatment at concentrations of 390 nM to 100 μM, and were then re-added”, “treatment at concentrations 390 nM to 100 μM.” for “treatment.”, “added” for “added in an identical manner”

[12] = 10 ng/ml LPS, inhibitor 20 μM where present
[13] = 50 μM Aβ1-40, inhibitor 20 μM where present
[14] = 50 μM Aβ1-40, compound 390 nM to 100 μM, 2 h pretreatment and re-added with Aβ, 3 days, n=3
[15] = 50 μM Aβ1-40, 1 day, compound 0, 5, 10, 20 μM, FIG. 2
[16] = 50 μM Aβ1-40, compound 390 nM to 100 μM added at time of Aβ, 3 days, n=3

CCCCC/C=C\C/C=C\C/C=C\C/C=C\CCCC(=O)C(F)(F)F [AACOCF3, arachidonyl trifluoromethyl ketone]
IL-1 Released [1, 12]: 51 ± 6.4 pg/mL
activity at 20 µM ([1]; Homo sapiens, Microglia, 10 ng/ml LPS + 20 μM inhibitor, read-out: IL-1 Released, percent in parentheses (relative to LPS alone)): 225%
LPS-mediated cytokine release, IL-1 (in words) ([1]; LPS stimulation): actually enhanced
neuronal death resulting from Aβ1-40 exposure (in words) ([2]; pretreatment two hours, three days, FIG. 6): substantially decreased neuronal death
TNF Released [3, 13]: 54.8 ± 9.4 pg/mL
Aβ1-40-mediated TNFα release, selectivity versus LPS (in words) ([3]; Aβ1-40 versus LPS stimulation): selectively inhibited
activity at 20 µM ([3]; Homo sapiens, Microglia, 50 μM Aβ1-40 + 20 μM inhibitor, read-out: TNF Released, percent in parentheses (relative to Aβ1-40 alone)): 52%
inhibition of Ca^+2 -independent PLA2 activity [4]: capable of inhibiting
inhibition of cPLA2 [5]: capable of inhibiting
IL-1 Released [6, 13]: 36 ± 7.2 pg/mL
Aβ1-40-mediated IL-1β release, selectivity versus LPS (in words) ([6]; Aβ1-40 versus LPS stimulation): selectively inhibited
activity at 20 µM ([6]; Homo sapiens, Microglia, 50 μM Aβ1-40 + 20 μM inhibitor, read-out: IL-1 Released, percent in parentheses (relative to Aβ1-40 alone)): 13%
TNF Released [7, 12]: 785 ± 50 pg/mL
activity at 20 µM ([7]; Homo sapiens, Microglia, 10 ng/ml LPS + 20 μM inhibitor, read-out: TNF Released, percent in parentheses (relative to LPS alone)): 161%
LPS-mediated cytokine release, TNF (in words) ([7]; LPS stimulation): actually enhanced

CN(C(=O)/C=C/c1ccc(C#N)cc1)c1ccc(S(=O)(=O)NC2CCCCCC2)cc1 [AN20628]
Emax [2, 14]: 87%
IC50 [2, 14]: 4 µM
amount of TNF-α released into the medium (in words) [3, 15]: marked and dose-dependent decrease
neuronal survival in the presence of pathogenic Aβ peptide (in words) ([8]; 0, 25 or 50 μM Aβ1-40, varying doses, FIG. 3, FIG. 4): dose-dependent increase in neuronal survival
Max Inh [8, 16]: 82%
IC50 ([8]; Homo sapiens, Cortical neurone, 72 h, 50 μM Aβ1-40, compound 390 nM to 100 μM added at time of Aβ, 3 days, n=3, ND = not detected at the concentration range used, read-out: IC50 (dose that inhibited Aβ-mediated neurotoxicity by 50%)): 8 µM
TD10 (concentration giving 10% loss of neuronal survival) ([9]; human, 4320 min): 73 µM
amount of IL-1β released into the medium (in words) [6, 15]: marked and dose-dependent decrease

O=C1O/C(=C/Br)CCC1c1cccc2ccccc12 (stereo not drawn) [Bromoenol Lactone, (e)-6-(bromomethylene)tetrahydro-3-(1-naphthalenyl)-2H-pyran-2-one]
Emax [2, 14]: 41%
inhibition of Ca^+2 -independent PLA2 activity [4]: capable of inhibiting
inhibition of cPLA2 [5]: capable of inhibiting

CCCCCCCCCCCC=CC(C)(C)C=CCCCC(=O)O [DEDA, 7,7,-dimethyl-5,8-eicosadienoic acid]
Emax [2, 14]: 19%

C[C@H]1c2cccc(O)c2C(O)=C2C(=O)[C@]3(O)C(O)=C(C(N)=O)C(=O)[C@@H](N(C)C)[C@@H]3[C@@H](O)[C@@H]21 [Doxycycline]
Emax [2, 14]: 0%

CN(C)c1ccc(O)c2c1C[C@H]1C[C@H]3[C@H](N(C)C)C(O)=C(C(N)=O)C(=O)[C@@]3(O)C(O)=C1C2=O [Minocycline]
Emax [2, 14]: 69%
IC50 [2, 14]: 71 µM
TD10 (concentration giving 10% loss of neuronal survival) [10]: 78 µM

CCN(CC)CCCC(C)Nc1c2ccc(Cl)cc2nc2ccc(OC)cc12 (stereo not drawn) [Quinacrine]
Max Inh [8, 16]: 2%
CC50 at 72 h [11]: 9 µM
TD10 (concentration giving 10% loss of neuronal survival) ([9]; human, 4320 min): 6 µM

COc1ccc2c(c1)CC[C@@H]1[C@@H]2CC[C@]2(C)[C@@H](NCCCCCCN3C(=O)CCC3=O)CC[C@@H]12 [U73343]
Max Inh [8, 16]: 10%
CC50 at 72 h ([11]; no Aβ1-40, 3 days, 390 nM to 100 μM, n=3, ND = not detected at the concentration range used, read-out: TD50 (concentration giving 50% loss of neuronal survival)): 8 µM
TD10 (concentration giving 10% loss of neuronal survival) ([9]; no Aβ1-40, 3 days, 390 nM to 100 μM, n=3): 6 µM

CCCCCCCCCCCCCCCC(=O)C(F)(F)F [palmitoyl trifluoromethyl ketone]
inhibition of Ca^+2 -independent PLA2 activity [4]: capable of inhibiting
inhibition of cPLA2 [5]: capable of inhibiting

Oleoyloxyethyl Phosphocholine
Max Inh [2, 14]: 40%
TD10 (concentration giving 10% loss of neuronal survival) [10]: 17 µM
CC50 ([10]; n=3, ND = not detected at the concentration range used, read-out: TD50 (concentration giving 50% loss of neuronal survival)): 29 µM
